Results as given in ChEMBL document CHEMBL5154919, “New ZW4864 Derivatives as Small-Molecule Inhibitors for the β-Catenin/BCL9 Protein-Protein Interaction” (ACS Med Chem Lett, 2022).
Calls of active or inactive are those of the source. The calls are words filed in the database; no cut-off is given here.

What was measured:
[1] = Effect of Wnt/beta-Catenin signaling pathway in human SW480 cells assessed as reduction in HPRT level at 5 uM incubated for 24 hrs by qRT-PCR analysis relative to control; type: functional; conditions: SW480, 24 h
[2] = Effect of Wnt/beta-Catenin signaling pathway in human SW480 cells assessed as reduction in HPRT level at 20 uM incubated for 24 hrs by qRT-PCR analysis relative to control; type: functional; conditions: SW480, 24 h
MDA-MB-468 = experiment: Effect of Wnt/beta-Catenin signaling in human MDA-MB-468 cells transfected with beta-catenin plasmid assessed as inhibition of cell growth rescue measured after 72 hrs by MTS assay; type: functional, cell-based
HCT-116 = experiment: Antiproliferative activity against human HCT-116 cells assessed as inhibition of cell growth measured by MTS method; type: functional, cell-based
[3] = Effect of Wnt/beta-Catenin signaling pathway in human SW480 cells assessed as reduction in Cyclin D1 level at 5 uM incubated for 24 hrs by qRT-PCR analysis relative to control; type: functional; conditions: SW480, 24 h
CYP2D6 = CYP2D6 (Homo sapiens, UniProt P10635); experiment: Inhibition of CYP2D6 in human liver microsomes using bufuralol as substrate at 10 uM in presence of NADPH incubated for 10 mins; type: ADME, Microsome; conditions: probe bufuralol
Sequence of CYP2D6 (P10635 whole entry, the tested form may be a part): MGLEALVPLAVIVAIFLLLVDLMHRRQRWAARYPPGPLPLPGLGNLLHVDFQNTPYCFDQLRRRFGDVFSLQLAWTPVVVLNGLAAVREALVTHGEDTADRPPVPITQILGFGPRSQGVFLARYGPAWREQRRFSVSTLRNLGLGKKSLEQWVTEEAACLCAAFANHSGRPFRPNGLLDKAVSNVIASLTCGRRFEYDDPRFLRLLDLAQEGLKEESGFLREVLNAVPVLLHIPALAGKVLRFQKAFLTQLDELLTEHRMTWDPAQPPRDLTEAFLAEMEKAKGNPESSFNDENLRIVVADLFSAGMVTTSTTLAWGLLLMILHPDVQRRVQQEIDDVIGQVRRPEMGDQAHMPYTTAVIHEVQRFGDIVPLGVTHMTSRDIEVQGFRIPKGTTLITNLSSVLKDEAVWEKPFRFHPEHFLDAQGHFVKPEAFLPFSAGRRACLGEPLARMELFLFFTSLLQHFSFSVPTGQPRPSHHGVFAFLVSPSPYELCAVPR

[4] = biological target: T1, beta-catenin-B-cell lymphoma 9 protein complex (Homo sapiens, UniProt P35222); experiment: Inhibition of full length beta-catenin (1 to 781 residues) (unknown origin) expressed in Escherichia coli BL21 (DE3)-N-terminal biotinylated human BCL9 (350 to 375 residues) protein-protein interaction incubated for 1 hr by Alphascreen assay
T1 sequence (P35222 whole entry): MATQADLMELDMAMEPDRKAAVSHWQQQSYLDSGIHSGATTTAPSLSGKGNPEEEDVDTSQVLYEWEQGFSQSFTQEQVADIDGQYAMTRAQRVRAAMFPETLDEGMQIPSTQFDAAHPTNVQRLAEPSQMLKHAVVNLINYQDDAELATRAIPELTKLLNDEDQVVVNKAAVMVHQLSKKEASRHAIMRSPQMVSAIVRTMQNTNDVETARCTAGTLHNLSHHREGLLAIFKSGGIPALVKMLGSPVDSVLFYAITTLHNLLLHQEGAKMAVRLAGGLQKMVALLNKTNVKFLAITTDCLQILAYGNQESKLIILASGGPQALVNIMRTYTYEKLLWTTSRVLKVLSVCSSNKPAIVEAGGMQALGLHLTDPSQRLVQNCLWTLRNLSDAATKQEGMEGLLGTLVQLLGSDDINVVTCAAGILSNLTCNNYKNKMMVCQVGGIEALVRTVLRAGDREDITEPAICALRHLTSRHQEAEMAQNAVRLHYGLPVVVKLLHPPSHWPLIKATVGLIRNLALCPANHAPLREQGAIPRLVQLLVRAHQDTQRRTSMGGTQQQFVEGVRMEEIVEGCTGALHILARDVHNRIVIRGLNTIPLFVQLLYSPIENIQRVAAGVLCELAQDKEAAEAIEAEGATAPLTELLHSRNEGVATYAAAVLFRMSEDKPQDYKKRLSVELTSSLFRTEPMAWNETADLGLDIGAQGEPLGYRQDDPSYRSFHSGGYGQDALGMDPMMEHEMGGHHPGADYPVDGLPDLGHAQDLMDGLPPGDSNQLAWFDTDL
T1 sequence (O00512 whole entry): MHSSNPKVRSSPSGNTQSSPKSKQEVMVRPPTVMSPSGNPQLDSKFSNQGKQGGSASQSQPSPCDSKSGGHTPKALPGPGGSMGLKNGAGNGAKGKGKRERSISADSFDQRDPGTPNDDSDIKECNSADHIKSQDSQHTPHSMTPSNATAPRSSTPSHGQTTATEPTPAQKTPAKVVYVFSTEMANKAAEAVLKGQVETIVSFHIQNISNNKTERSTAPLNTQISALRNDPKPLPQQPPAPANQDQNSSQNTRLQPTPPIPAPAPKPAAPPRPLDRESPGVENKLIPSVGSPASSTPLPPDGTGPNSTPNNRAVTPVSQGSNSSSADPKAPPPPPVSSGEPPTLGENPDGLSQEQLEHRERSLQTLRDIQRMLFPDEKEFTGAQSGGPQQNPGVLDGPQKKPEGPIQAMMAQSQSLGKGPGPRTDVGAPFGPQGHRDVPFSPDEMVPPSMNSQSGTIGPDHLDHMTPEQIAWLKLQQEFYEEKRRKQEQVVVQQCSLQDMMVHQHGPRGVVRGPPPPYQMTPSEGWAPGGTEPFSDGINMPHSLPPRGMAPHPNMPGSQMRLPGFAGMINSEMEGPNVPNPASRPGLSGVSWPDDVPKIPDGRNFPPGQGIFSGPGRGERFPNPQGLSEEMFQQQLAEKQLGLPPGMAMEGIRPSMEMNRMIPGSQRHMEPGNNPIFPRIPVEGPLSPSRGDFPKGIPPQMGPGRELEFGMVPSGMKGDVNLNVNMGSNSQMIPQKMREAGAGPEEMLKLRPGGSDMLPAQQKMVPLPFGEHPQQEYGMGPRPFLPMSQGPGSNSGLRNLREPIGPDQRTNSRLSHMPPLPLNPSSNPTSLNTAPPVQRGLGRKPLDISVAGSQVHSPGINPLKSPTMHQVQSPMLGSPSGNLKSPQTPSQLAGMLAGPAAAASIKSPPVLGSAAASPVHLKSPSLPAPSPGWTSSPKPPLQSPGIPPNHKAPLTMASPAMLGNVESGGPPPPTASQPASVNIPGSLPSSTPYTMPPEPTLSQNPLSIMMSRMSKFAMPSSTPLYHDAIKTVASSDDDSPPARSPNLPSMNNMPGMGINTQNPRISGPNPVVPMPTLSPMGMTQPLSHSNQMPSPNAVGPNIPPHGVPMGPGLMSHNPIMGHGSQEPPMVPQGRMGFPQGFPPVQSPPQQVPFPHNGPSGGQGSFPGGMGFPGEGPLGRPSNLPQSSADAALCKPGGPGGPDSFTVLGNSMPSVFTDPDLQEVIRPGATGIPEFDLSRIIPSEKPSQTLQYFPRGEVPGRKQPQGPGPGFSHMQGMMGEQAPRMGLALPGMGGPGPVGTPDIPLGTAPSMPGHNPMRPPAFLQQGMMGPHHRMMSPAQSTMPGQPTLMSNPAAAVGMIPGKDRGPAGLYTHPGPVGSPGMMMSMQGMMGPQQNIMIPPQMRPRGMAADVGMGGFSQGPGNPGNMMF

[5] = Effect of Wnt/beta-Catenin signaling pathway in human SW480 cells assessed as reduction in Cyclin D1 level at 20 uM incubated for 24 hrs by qRT-PCR analysis relative to control; type: functional; conditions: SW480, 24 h

IC50 (HCT-116): 9.5 µM
inhibition at 10 min, 10 µM (CYP2D6): 54%
IC50 [4]: 3.4 µM
Ki [4]: 2.7 µM
Structure (SMILES): CC(C)(Oc1cccc(N2CCC[C@@H](C(=O)N(Cc3ccc(-c4cnc5[nH]ccc5c4)cc3)C3CC3)C2)c1)C(=O)N1CCNCC1.Cl
level, % of control at 5 µM [1]: 99%
level, % of control at 20 µM [2]: 99%
inhibition (MDA-MB-468): Active
level, % of control at 5 µM [3]: 89%
level, % of control at 20 µM [5]: 29%
